The assay deals with healthy adult ventricular cardiac muscle cells. The assay is described as follows: Microinjection of activated caspase-3 into isolated ventricular cardiac muscle cells. The assay is classed as cell-based, rabbit. The following applies: pre-incubation of the muscle cells with inhibitor (100 μmol/l). As for the experimental part: The microinjection experiments were carried out on freshly isolated cardiac muscle cells of sham-operated rabbits by means of a “Femto-Jet” microinjection device (Eppendorf, Hamburg, Germany). FITC-conjugated dextran (6 mg/ml), alone or in combination with human recombinant active caspase-3 (4 ng/μl and 20 ng/μl) in 5 mmol/l potassium phosphate buffer (pH value 7.4; 100 mmol/l KCl) was injected into the cytoplasm of the cells in culture medium (Pi=1000 hPa, ti=0.1 sec., Pc=30 hPa) which had been supplemented with 200 μmol/l BDM (butanedione-monoxime, Sigma, Taufkirchen, Germany), 10 μmol/l verapamil and, optionally, 100 μmol/l […]. After incubation for two hours, contraction measurements or phalloidin staining were carried out. Injected cells were selected by means of FITC fluorescence.
In order to be able to study whether the activation of caspase-3 is sufficient for the induction of the worsening of sarcomere organisation, the activated enzyme was injected into the cytoplasm of healthy adult ventricular cardiac muscle cells. Positive cells (approximately 10 to 20%) were identified by means of FITC fluorescence. The morphological features of the cardiac muscle cells after microinjection of activated caspase-3 (4 ng/μl and 20 ng/μl) in comparison with control-injected cells are shown in FIGS. 9(a+b). […]

Take DEVD-fmk: the “caspase-3-mediated lowering of contraction” value is reported as “blocked”.

For the origin of these results see US20030130216A1, “Use of inhibitors of caspase-3 or caspase-activated desoxyribonuclease(cad) for treating cardiac disease” (priority 2000, published 2003).
